Source: publication PMC5663395, “Chemical Validation of Methionyl-tRNA Synthetase as a Druggable Target in Leishmania donovani” (ACS Infectious Diseases, 2017)

Experiment: pKa measurement (Sirius T3, UV-metric)
Assay type: physicochemical
Method: calculated, both in terms of pEC50 values. MIC (minimum inhibitory concentration) values are defined as the lowest concentration tested at which maximal inhibition is reached.
THP-1 cells were differentiated in 96-well plates with PMA as described above. Following differentiation the cells were treated for 30 min with dose-response curves of test compounds in presence of 100 nM LysoTracker Red DND-99 (Thermo Fisher) and 5 µg/ml Hoechst 33342. Next cells were washed 3 times with Hanks Buffered Saline Solution (Gibco) and imaged on a Perkin Elmer Operetta system. An image analysis algorithm to measure mean Lysotracker Red DND-99 intensity per cell was developed in Columbus. […]
To measure the pKa of DDD806905, a fast UV-metric method was performed using a Sirius T3 instrument (Sirius Analytical, U.K.). The calculation of the pKa was determined using the Sirius T3 refine software (Sirius Analytical, U.K.). In brief, the UV-metric pKa method is based on measuring pH during an acid-base titration and monitoring UV absorbance shift. […] The appearance of precipitate was monitored throughout the experiment by a turbidity sensing device. […] The pKas of DDD806905 was determined at the pH where there was maximal change in UV absorbance with respect to pH. […]
LogD7.4 values were quantified using a Sirius T3 instrument (Sirius Analytical, U.K.). […]

Cl.Cl.O=c1nc(NCCCNCc2cc3c(Cl)cc(Cl)cc3[nH]2)[nH]c2ccccc12 [DDD806905, 2-((3-(((4,6-dichloro-1H-indol-2-yl)methyl)amino)propyl)amino)quinazolin-4(1H)-one dihydrochloride]
compound present in un-ionized state (pH 5.6): ~0%
compound present in un-ionized state (pH 7.3): 0.01%
